# Results reported in patent publication US20100087496A1, “NOVEL CINNAMIC AMIDE DERIVATIVES USEFUL AS ION CHANNEL MODULATORS” (NeuroSearch A/S, priority 2006, published 2010).
# Target: T1, BK channels heterologously expressed in Xenopus laevis oocytes (Homo sapiens, UniProt Q12791)
# T1 construct: expressed in transfected cells; host or cells: Xenopus laevis oocytes
# Experiment: BK channel opening activity, two-electrode voltage clamp in Xenopus laevis oocytes
# Type: cell-based
# Conditions: step from −40 mV to +30 mV
# Protocol: In this example the BK channel opening activity of three cinnamic amide derivatives representative of the invention, i.e. Compound 22 (A), Compound 9 (B) and Compound 19 (C), is determined using BK channels heterologously expressed in Xenopus laevis oocytes.
# The electrical current through the BK channel is measured conventional two-electrode voltage clamp. BK current is activated by repeated step protocols. In brief, this protocol goes from a resting membrane potential of −40 mV lasting for 5 seconds to a depolarised step to +30 mV lasting for 1 second. The protocol was repeated continuously.
# Having reached a stable current level, Compound A (3 μM), Compound B (1 μM) and Compound C (30 μM) was added.
# T1 sequence (Q12791 whole entry): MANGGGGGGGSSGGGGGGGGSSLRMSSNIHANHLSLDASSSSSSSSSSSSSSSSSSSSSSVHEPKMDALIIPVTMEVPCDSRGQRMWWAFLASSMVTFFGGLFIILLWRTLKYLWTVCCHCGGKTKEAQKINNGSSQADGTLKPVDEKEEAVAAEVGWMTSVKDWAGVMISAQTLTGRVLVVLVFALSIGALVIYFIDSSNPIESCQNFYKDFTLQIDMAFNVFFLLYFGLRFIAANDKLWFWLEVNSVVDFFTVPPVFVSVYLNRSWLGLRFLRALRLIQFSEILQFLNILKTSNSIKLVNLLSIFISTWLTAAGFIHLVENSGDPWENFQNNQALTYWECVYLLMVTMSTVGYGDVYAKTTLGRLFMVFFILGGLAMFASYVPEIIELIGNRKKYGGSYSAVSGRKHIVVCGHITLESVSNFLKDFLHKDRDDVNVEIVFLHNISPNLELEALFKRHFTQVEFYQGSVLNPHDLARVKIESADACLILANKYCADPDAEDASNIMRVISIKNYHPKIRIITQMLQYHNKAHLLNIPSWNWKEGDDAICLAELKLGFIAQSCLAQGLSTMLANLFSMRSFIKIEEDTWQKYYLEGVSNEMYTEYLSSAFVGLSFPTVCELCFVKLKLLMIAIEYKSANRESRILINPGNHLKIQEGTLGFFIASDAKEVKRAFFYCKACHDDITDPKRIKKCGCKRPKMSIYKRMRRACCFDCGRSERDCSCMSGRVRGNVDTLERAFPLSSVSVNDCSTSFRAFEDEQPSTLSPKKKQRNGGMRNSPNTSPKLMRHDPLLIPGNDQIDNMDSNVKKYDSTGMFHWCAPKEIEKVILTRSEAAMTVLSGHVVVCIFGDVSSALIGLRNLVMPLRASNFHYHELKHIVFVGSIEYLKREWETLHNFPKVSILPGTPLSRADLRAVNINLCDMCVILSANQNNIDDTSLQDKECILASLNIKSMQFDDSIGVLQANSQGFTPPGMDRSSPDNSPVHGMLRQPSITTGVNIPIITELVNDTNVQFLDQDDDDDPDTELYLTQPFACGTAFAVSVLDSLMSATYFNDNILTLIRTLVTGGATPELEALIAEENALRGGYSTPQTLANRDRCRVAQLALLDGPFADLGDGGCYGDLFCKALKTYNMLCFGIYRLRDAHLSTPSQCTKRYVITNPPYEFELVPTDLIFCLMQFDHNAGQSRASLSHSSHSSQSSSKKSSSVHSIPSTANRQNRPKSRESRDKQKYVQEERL
smiles,measurement,setting,value
"O=C(/C=C/c1ccc2ccccc2c1)Nc1cc(Cl)ccc1-c1nnn[nH]1 [Compound 9, (E)-N-[5-Chloro-2-(1H-tetrazol-5-yl)-3-phenyl]-3-naphthalen-2-yl-acrylamide]",current activated by depolarisation (BK current),1 μM,marked increase
"O=C(/C=C/c1ccc2ccccc2c1)Nc1cc(Cl)ccc1S(=O)(=O)O [Compound 19, 4-Chloro-2-((E)-3-naphthalen-2-yl-acryloylamino)-benzenesulfonic acid]",current activated by depolarisation (BK current),30 μM,marked increase
"O=C(Nc1cc(Cl)ccc1-c1nnn[nH]1)C1=Cc2cc(Cl)ccc2OC1 [Compound 22, 6-Chloro-2H-chromene-3-carboxylic acid [5-chloro-2-(1H-tetrazol-5-yl)-phenyl]-amide]",current activated by depolarisation (BK current),3 μM,marked increase
